Data published in ChEMBL document CHEMBL5143544, “Chemoenzymatic synthesis, computational investigation, and antitumor activity of monocyclic lankacidin derivatives” (Bioorg Med Chem, 2022).

Assays:
HeLa = assay: Cytotoxicity against human HeLa cells assessed as reduction in cell viability after 72 hrs by MTT assay; assay type: functional, cell-based
A549 = assay: Cytotoxicity against human A549 cells assessed as reduction in cell viability after 72 hrs by MTT assay; assay type: functional, cell-based; conditions: A549, 72 h
MCF7 = assay: cells; conditions: Homo sapiens, MCF7, 72 h
Description: Cytotoxicity against human MCF7 cells assessed as reduction in cell viability after 72 hrs by MTT assay

Micrococcus luteus = assay: Antimicrobial activity against Micrococcus lutes assessed as reduction in microbial growth incubated for 24 hrs by agar dilution method; assay type: functional

Structure (SMILES) | IC50 (HeLa) | IC50 (A549) | IC50 (MCF7) | MIC (Micrococcus luteus)
CC1=C\C[C@H](O)/C=C/C(C)=C/[C@@H](NC(=O)[C@H](C)O)[C@@H](C)C(=O)/C(C)=C/C[C@H](O)\C=C\1 | 45.4 µM | > 100 µM | 42.8 µM | 
CC1=C\C[C@H](O)/C=C/C(C)=C/[C@@H](NC(=O)[C@H](C)O)[C@H](C)C(=O)/C(C)=C/C[C@H](O)\C=C\1 | 13.3 µM | > 100 µM | > 100 µM | 
CC(=O)O[C@H]1C(=O)[C@@]2(C)[C@H]([C@H](OC(=O)c3ccccc3)[C@]3(O)C[C@H](OC(=O)[C@H](O)[C@@H](NC(=O)c4ccccc4)c4ccccc4)C(C)=C1C3(C)C)[C@]1(OC(C)=O)CO[C@@H]1C[C@@H]2O [PACLITAXEL] | < 0.00625 µM | 0.0295 µM | > 0.0811 µM | 
CC(=O)C(=O)N[C@@H]1/C=C(C)/C=C/[C@@H](O)C/C=C(C)/C=C/[C@@H](O)C/C=C(\C)C(=O)[C@H]1C | 72.9 µM | > 100 µM | > 100 µM | 
CC(=O)O[C@@H]1/C=C/C(C)=C/C[C@H](O)/C=C/C(C)=C/[C@@H](NC(=O)[C@H](C)O)[C@]2(C)C(=O)O[C@H](C1)[C@@H](C)C2=O | 48.2 µM | > 100 µM | 47.1 µM | 
CC(=O)C(=O)N[C@@H]1/C=C(C)/C=C\[C@@H](O)C/C=C(C)/C=C/[C@@H](O)C[C@H]2OC(=O)[C@]1(C)C(=O)[C@@H]2C | 23.3 µM | > 100 µM | > 100 µM | 6.2 µM
CC(=O)C(=O)N[C@@H]1/C=C(C)/C=C/[C@@H](O)C/C=C(C)/C=C/[C@@H](O)C/C=C(\C)C(=O)[C@@H]1C | > 100 µM | > 100 µM | > 100 µM | 
CC1=C\C[C@H](O)/C=C/C(C)=C/[C@@H](NC(=O)[C@H](C)O)[C@]2(C)C(=O)O[C@H](C[C@H](O)\C=C\1)[C@@H](C)C2=O | 24.8 µM | > 100 µM | 75.7 µM | 
O=c1[nH]cc(F)c(=O)[nH]1 [FLUOROURACIL] | 32.1 µM | 6.6 µM | 22.8 µM | 
